Test results published in ChEMBL document CHEMBL1144350, “Synthesis and evaluation of imidazolylmethylenetetrahydronaphthalenes and imidazolylmethyleneindanes: potent inhibitors of aldosterone synthase” (J Med Chem, 2005).

How the values were obtained:
[1] = molecular target: T1, Cytochrome P450 11B2, mitochondrial (Homo sapiens, UniProt P19099); experiment: In vitro inhibition of human cytochrome P450 11B2 expressed in Schizosaccharomyces pombe with 500 nM deoxy-corticosterone
T1 sequence (P19099 whole entry): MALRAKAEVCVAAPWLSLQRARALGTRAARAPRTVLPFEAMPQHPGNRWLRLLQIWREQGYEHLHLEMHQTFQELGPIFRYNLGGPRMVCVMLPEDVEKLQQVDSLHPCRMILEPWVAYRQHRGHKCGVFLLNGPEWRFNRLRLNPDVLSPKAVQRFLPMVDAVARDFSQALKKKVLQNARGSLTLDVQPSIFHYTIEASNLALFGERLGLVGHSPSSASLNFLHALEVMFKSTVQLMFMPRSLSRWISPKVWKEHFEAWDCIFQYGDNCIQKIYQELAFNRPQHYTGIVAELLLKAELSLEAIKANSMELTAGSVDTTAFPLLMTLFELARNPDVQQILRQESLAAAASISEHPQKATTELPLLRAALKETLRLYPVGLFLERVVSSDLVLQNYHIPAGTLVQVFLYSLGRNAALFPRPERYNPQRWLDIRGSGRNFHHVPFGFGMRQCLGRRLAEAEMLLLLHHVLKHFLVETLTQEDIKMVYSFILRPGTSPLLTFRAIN

[2] = molecular target: T2, Cytochrome P450 11B1, mitochondrial (Bos taurus, UniProt P15150); experiment: In vitro inhibition against bovine cytochrome P450 11B with 200 uM corticosterone; conditions: cyp11b
T2 sequence (P15150 whole entry): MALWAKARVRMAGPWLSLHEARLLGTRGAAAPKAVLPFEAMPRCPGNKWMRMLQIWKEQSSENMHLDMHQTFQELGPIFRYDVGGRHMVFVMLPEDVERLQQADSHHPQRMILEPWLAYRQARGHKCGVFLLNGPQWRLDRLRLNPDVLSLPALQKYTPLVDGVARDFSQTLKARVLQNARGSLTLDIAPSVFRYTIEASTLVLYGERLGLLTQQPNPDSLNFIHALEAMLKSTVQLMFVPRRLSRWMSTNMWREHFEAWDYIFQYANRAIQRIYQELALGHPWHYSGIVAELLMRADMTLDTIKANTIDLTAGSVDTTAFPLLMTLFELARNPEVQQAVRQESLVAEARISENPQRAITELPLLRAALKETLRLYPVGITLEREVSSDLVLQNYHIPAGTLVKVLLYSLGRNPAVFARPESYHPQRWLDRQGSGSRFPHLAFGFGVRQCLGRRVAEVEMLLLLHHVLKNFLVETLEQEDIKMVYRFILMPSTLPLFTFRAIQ

[3] = molecular target: T3, Steroid 17-alpha-hydroxylase/17,20 lyase (Homo sapiens, UniProt P05093); experiment: In vitro inhibition against human […] cytochrome P450 17 expressed in Escherichia coli with 2.5 uM progesterone
T3 sequence (P05093 whole entry): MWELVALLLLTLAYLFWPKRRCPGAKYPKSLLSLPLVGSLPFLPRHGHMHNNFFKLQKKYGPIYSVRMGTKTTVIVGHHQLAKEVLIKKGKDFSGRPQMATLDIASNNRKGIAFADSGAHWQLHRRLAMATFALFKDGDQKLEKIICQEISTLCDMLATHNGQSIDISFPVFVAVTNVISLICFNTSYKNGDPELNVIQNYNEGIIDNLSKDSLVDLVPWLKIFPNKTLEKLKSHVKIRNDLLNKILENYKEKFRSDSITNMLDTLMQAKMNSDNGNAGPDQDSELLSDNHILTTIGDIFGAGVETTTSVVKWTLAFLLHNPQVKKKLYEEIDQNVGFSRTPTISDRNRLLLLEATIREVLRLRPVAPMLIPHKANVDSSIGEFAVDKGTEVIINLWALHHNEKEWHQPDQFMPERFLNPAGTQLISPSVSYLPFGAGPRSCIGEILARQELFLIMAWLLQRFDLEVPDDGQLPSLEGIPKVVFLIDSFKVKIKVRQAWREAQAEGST

[4] = molecular target: T1, Cytochrome P450 11B2, mitochondrial; experiment: In vitro inhibition of [14C]deoxycorticosterone binding to human cytochrome P450 11B2 expressed in hamster V79 MZh cells; format: cell-based
[5] = molecular target: T4, Cytochrome P450 11B1, mitochondrial (Homo sapiens, UniProt P15538); experiment: In vitro inhibition of [14C]deoxycorticosterone binding to human cytochrome P450 11B1 expressed in hamster V79 MZh cells; format: cell-based
T4 sequence (P15538 whole entry): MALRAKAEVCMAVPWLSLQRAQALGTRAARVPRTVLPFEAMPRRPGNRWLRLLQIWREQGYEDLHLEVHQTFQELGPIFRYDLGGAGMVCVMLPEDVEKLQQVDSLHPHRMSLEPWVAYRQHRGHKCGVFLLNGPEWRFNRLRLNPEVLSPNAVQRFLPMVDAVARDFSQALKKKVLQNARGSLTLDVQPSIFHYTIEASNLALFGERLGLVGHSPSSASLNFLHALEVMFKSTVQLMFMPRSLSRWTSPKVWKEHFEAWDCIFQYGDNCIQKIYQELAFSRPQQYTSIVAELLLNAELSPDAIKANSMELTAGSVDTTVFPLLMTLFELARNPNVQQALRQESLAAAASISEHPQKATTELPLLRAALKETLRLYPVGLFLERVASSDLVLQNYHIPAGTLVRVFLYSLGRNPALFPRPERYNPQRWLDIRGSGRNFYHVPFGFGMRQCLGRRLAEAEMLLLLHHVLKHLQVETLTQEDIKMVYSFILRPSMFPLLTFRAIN

[6] = molecular target: T5, Aromatase (Homo sapiens, UniProt P11511)
T5 sequence (P11511 whole entry): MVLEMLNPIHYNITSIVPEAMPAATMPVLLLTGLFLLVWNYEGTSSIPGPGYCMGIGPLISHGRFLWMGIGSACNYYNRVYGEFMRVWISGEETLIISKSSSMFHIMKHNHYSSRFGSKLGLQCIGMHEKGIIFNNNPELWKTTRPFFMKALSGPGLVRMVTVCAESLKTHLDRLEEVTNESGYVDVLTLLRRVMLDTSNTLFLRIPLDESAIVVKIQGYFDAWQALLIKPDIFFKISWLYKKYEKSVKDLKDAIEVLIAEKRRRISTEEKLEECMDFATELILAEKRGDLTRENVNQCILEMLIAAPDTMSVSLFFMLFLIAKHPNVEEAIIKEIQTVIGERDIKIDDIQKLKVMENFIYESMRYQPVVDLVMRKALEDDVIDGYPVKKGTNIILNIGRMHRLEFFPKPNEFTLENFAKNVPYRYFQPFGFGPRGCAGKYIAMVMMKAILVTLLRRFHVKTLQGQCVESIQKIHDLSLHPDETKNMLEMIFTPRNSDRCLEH
Description: In vitro inhibitory concentration against human placental cytochrome P450 19 with 2.5 uM testosterone

Row | SMILES | Inhibition [1] [%] | Inhibition [2] [%] | Inhibition [3] [%] | IC50 [4] [nM] | IC50 [5] [nM] | IC50 [6] [nM]
1 | Fc1ccc2c(c1)CC/C2=C/c1c[nH]cn1 | 58 | 64 | 11 |  |  | 
2 | N#Cc1ccc2c(c1)CC/C2=C/c1ncc[nH]1 | 65 | 100 | 4 | 35.7 | 12.3 | 15
3 | N#Cc1ccc2c(c1)/C(=C\c1c[nH]cn1)CCC2 | 23 | 97 | 3 |  |  | 810
4 | N#Cc1ccc2c(c1)/C(=C/c1cnc[nH]1)CCC2 | 8 | 62 | 2 |  |  | 970
5 | C(=C1\CCCc2ccccc21)/c1c[nH]cn1 | 82 | 95 | 13 |  |  | 190
6 | Clc1ccc2c(c1)/C(=C/c1c[nH]cn1)CCC2 | 48 | 66 | 24 | 47.3 |  | 120
7 | Brc1ccc2c(c1)CC/C2=C/c1c[nH]cn1 | 76 | 88 | 15 | 10.3 |  | 
8 | Clc1ccc2c(c1)CC/C2=C/c1c[nH]cn1 | 80 | 87 | 26 |  |  | 39
